Biological target: T1, recombinant human liver GK (Homo sapiens, UniProt P35557)
T1 construct: made in house; host or cells: E. coli
T1 sequence (P35557 1-466 isoform P35557-2): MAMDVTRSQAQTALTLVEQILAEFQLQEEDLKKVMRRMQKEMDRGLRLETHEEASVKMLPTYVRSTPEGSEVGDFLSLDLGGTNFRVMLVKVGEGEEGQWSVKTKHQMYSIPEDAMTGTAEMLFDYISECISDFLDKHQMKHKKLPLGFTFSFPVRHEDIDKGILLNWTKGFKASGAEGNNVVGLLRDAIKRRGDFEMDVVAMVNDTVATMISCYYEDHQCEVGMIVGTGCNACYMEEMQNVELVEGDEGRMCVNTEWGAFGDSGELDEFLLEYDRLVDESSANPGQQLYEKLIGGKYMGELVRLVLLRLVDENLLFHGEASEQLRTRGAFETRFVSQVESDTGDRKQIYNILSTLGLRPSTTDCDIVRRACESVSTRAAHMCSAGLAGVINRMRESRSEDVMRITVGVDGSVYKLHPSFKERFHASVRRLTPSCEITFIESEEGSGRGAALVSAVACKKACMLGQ
Experiment: glucokinase activation assay (Thio-NADH, G6PDH-coupled)
Assay type: biochemical
Settings: final glucose concentration 2.5 mM; 30° C.
Source text: The excellent glucokinase-activating effect of the compounds of formula (I) may be determined by a method described in literature (e.g., Diabetes, Vol. 45, pp. 1671-1677, 1996), or in accordance with it.
The glucokinase activity may be determined not by directly measuring glucose-6-phosphate but by measuring the level of Thio-NADH, which is produced when a reporter enzyme, glucose-6-phosphate dehydrogenase produces phosphogluconolactone from glucose-6-phosphate, and based on that level, the level of glucokinase activation may be determined.
In this assay, used was a recombinant human liver GK, which was expressed by E. coli as a FLAG fusion protein therein and was purified by ANTIFLAG M2 AFFINITY GEL (Sigma).
Using a flat-bottomed 96-well plate, the assay was carried out at 30° C. 69 μl of an assay buffer (25 mM Hepes Buffer, pH=7.2, 2 mM MgCl2, 1 mM ATP, 0.5 mM TNAD, 1 mM dithiothreitol) was put into the plate, and 1 μl of a DMSO solution of the compound or DMSO alone as a control was added thereto. Next, 20 μl of an enzyme mixture (FLAG-GK, 20 U/ml G6PDH) cooled in ice was added to it, and 10 μl of a substrate, 25 mM glucose was added to it, and the reaction was initiated (final glucose concentration=2.5 mM).
After the start of the reaction, the increase in the absorbance at 405 nm was measured for 12 minutes at intervals of 30 seconds, and the increase for the first 5 minutes was used for evaluating the compound tested. FLAG-GK was added so that the absorbance increase after 5 minutes in the presence of 1% DMSO could be from 0.04 to 0.06.
The OD level of the DMSO control was set as 100%; and the OD level of the test compound at different concentrations was determined. From the OD level at each concentration, Emax (%) and EC50 (μM) were computed and used as the index of the GK-activating potency of the compound.

Row | Structure (SMILES) | EC50
1 | Cc1nc(-c2ccc(Oc3cc4cc(-c5ccccn5)[nH]c4cc3CN3CCCC3=O)cn2)no1 [Example 6, 1-[(5-([6-(5-Methyl-1,2,4-oxadiazol-3-yl)pyridin-3-yl]oxy)-2-pyridin-2-yl-1H-indol-6-yl)methyl]pyrrolidin-2-one] | 50 nM
2 | CCS(=O)(=O)c1ccc(Oc2cc3cc(-c4ccccn4)[nH]c3cc2Oc2cccnc2OC(F)F)cn1 [Example 2, 6-([2-(Difluoromethoxy)pyridin-3-yl]oxy)-5-([6-(ethylsulfonyl)pyridin-3-yl]oxy)-2-pyridin-2-yl-1H-indole] | 180 nM
3 | CS(=O)(=O)c1ccc(Oc2cc3cc(-c4ccccn4)[nH]c3cc2CN2CCCC2=O)cn1 [Example 3, 1-[(5-([6-(Methylsulfonyl)pyridin-3-yl]oxy)-2-pyridin-2-yl-1H-indol-6-yl)methyl]p-pyrrolidin-2-one] | 70 nM
